This is an account of results in BindingDB's records for doi:10.1016/j.ejmech.2017.05.048 (University of Auckland, 2017).

The assay can be described thus: Inhibition of perforin (unknown origin)-mediated 51Cr-labelled human Jurkat cell lysis preincubated with protein for 30 mins followed by cell addition measured after 4 hrs by gamma counting method.

In turn, `COC(=O)c1ccccc1S(=O)(=O)Nc1cncc(-c2ccc(-c3ccc4c(c3)CN(C)C4=O)s2)c1` gave an IC50 of 2.9 µM.

With `CN1Cc2cc(-c3ccc(-c4cncc(NS(=O)(=O)c5cccc(Cl)c5F)c4)s3)ccc2C1=O`, the IC50 is 13 µM.

The molecule `CN1Cc2cc(-c3ccc(-c4cncc(NS(=O)(=O)c5ccc(-c6cnco6)cc5)c4)s3)ccc2C1=O` yielded an IC50 of 3.05 µM.

Turning to `CN1Cc2cc(-c3ccc(-c4cncc(NS(=O)(=O)c5ccccc5OC(F)(F)F)c4)s3)ccc2C1=O`, the concentration for half-maximal inhibition (IC50) was 17.7 µM.

The molecule `CN1Cc2cc(-c3ccc(-c4ccc(OC(F)(F)F)c(NS(=O)(=O)c5ccccn5)c4)s3)ccc2C1=O` came in with an IC50 of over 20 µM.

Molecule `CN1Cc2cc(-c3ccc(-c4cncc(NC(=O)c5ccc(F)cc5F)c4)s3)ccc2C1=O` gave an IC50 of over 20 µM.

As for `CN1Cc2cc(-c3ccc(-c4cncc(NS(=O)(=O)c5ccc(Cl)cc5)c4)s3)ccc2C1=O`, the IC50 was determined as 5.39 µM.

The molecule `CN1Cc2cc(-c3ccc(-c4cccc(S(=O)(=O)Nc5ccccn5)c4)s3)ccc2C1=O` came in with an IC50 of 8.92 µM.

In the case of `CN1Cc2cc(-c3ccc(-c4cncc(NS(=O)(=O)c5cccc(Cl)c5)c4)s3)ccc2C1=O`, the 50% inhibitory concentration (IC50) worked out at 2.42 µM.

For `CN1Cc2cc(-c3ccc(-c4cncc(NS(=O)(=O)c5cccc(C(F)(F)F)c5)c4)s3)ccc2C1=O`, it took 1.22 µM to reach half-maximal inhibition (IC50).

Molecule `CN1Cc2cc(-c3ccc(-c4cncc(NS(=O)(=O)c5cccc(C#N)c5)c4)s3)ccc2C1=O` displayed an IC50 of over 20 µM.

The molecule `CCOC(=O)c1ccc(S(=O)(=O)Nc2cncc(-c3ccc(-c4ccc5c(c4)CN(C)C5=O)s3)c2)cc1` yielded an IC50 of 19.4 µM.

With `CN1Cc2cc(-c3ccc(-c4cncc(NS(=O)(=O)c5ccccc5[N+](=O)[O-])c4)s3)ccc2C1=O`, the IC50 is 6.65 µM.

`Cc1ccc(S(=O)(=O)Nc2cncc(-c3ccc(-c4ccc5c(c4)CN(C)C5=O)s3)c2)cc1Cl` came in with an IC50 of 8.14 µM.

In the case of `CN1Cc2cc(-c3ccc(-c4cncc(NS(=O)(=O)c5cccnc5)c4)s3)ccc2C1=O`, the IC50 amounted to 15.1 µM.

In turn, `CN1Cc2cc(-c3ccc(-c4cncc(NS(=O)(=O)c5ccc6c(c5)OCCO6)c4)s3)ccc2C1=O` showed an IC50 of over 20 µM.

In the case of `CN1Cc2cc(-c3ccc(-c4cncc(NS(=O)(=O)c5ccccc5F)c4)s3)ccc2C1=O`, the IC50 amounted to 2.03 µM.

Molecule `CN1Cc2cc(-c3ccc(-c4cc(NS(=O)(=O)c5ccccn5)ccc4F)s3)ccc2C1=O` displayed an IC50 of over 20 µM.

Consider `CN1Cc2cc(-c3ccc(-c4cnc(Cl)c(NS(=O)(=O)c5ccc(F)cc5F)c4)s3)ccc2C1=O`, for which 1.03 µM corresponded to half-maximal inhibition (IC50).

The molecule `CN1Cc2cc(-c3ccc(-c4ccc(NS(=O)(=O)c5ccc(F)cc5F)nc4)s3)ccc2C1=O` yielded an IC50 of over 20 µM.

In the case of `CN1Cc2cc(-c3ccc(-c4cncc(NS(=O)(=O)c5ccc(F)c(F)c5)c4)s3)ccc2C1=O`, the IC50 amounted to 18.6 µM.

With `CN1Cc2cc(-c3ccc(-c4cncc(NS(=O)(=O)c5ccccc5Br)c4)s3)ccc2C1=O`, the IC50 is 2.66 µM.

As for `CN1Cc2cc(-c3ccc(-c4cncc(NS(=O)(=O)c5ccc(I)cc5)c4)s3)ccc2C1=O`, the IC50 worked out at 5 µM.

In turn, `COc1ccc(S(=O)(=O)Nc2cncc(-c3ccc(-c4ccc5c(c4)CN(C)C5=O)s3)c2)cc1` had an IC50 of 6.27 µM.

`COC(=O)c1cccc(S(=O)(=O)Nc2cncc(-c3ccc(-c4ccc5c(c4)CN(C)C5=O)s3)c2)c1` gave an IC50 of 7.77 µM.

Turning to `CN1Cc2cc(-c3ccc(-c4cnc(F)c(NS(=O)(=O)c5ccccn5)c4)s3)ccc2C1=O`, half-maximal inhibition (IC50) was put at 4.1 µM.

For the molecule `COc1ccc(-c2ccc(-c3ccc4c(c3)CN(C)C4=O)s2)cc1S(=O)(=O)Nc1ccccn1`, the IC50 amounted to 9.68 µM.

Molecule `Cc1ccc(S(=O)(=O)Nc2ccccn2)cc1-c1ccc(-c2ccc3c(c2)CN(C)C3=O)s1` displayed a concentration for half-maximal inhibition (IC50) of over 20 µM.

In turn, `Cc1ccc(NS(=O)(=O)c2ccccn2)cc1-c1ccc(-c2ccc3c(c2)CN(C)C3=O)s1` gave an IC50 of 15.4 µM.

For the molecule `COc1ncc(-c2ccc(-c3ccc4c(c3)CN(C)C4=O)s2)cc1NS(=O)(=O)c1ccc(F)cc1F`, half-maximal inhibition (IC50) required 3.56 µM.

The molecule `CN1Cc2cc(-c3ccc(-c4cnc(F)c(NS(=O)(=O)c5ccc(F)cc5F)c4)s3)ccc2C1=O` had a half-maximal inhibitory concentration (IC50) of 1.99 µM.

In turn, `CN1Cc2cc(-c3ccc(-c4cncc(S(=O)(=O)Nc5ccc(F)cc5F)c4)s3)ccc2C1=O` gave an IC50 of 2.24 µM.

`CN1Cc2cc(-c3ccc(-c4ccnc(NS(=O)(=O)c5ccc(F)cc5F)c4)s3)ccc2C1=O`: the IC50 worked out at 4.7 µM.

For the molecule `CN1Cc2cc(-c3ccc(-c4cncc(NS(=O)(=O)c5ccc(F)cc5)c4)s3)ccc2C1=O`, it took 9.65 µM to reach half-maximal inhibition (IC50).

In the case of `CN1Cc2cc(-c3ccc(-c4cncc(NS(=O)(=O)c5cccc(F)c5)c4)s3)ccc2C1=O`, the IC50 was 20 µM.

In the case of `CN1Cc2cc(-c3ccc(-c4cncc(NS(=O)(=O)c5c(F)cc(F)cc5F)c4)s3)ccc2C1=O`, the 50% inhibitory concentration (IC50) was determined as 1.76 µM.

On to `CN1Cc2cc(-c3ccc(-c4cncc(NS(=O)(=O)c5ccc(Cl)c(Cl)c5)c4)s3)ccc2C1=O`, for which the IC50 is 1.32 µM.

With `CN1Cc2cc(-c3ccc(-c4cncc(NS(=O)(=O)c5ccc(Cl)cc5Cl)c4)s3)ccc2C1=O`, the IC50 is 15 µM.

`CN1Cc2cc(-c3ccc(-c4cncc(NS(=O)(=O)c5cccc(Br)c5)c4)s3)ccc2C1=O` displayed an IC50 of 2.11 µM.

In turn, `CN1Cc2cc(-c3ccc(-c4cncc(NS(=O)(=O)c5ccc(Br)cc5Br)c4)s3)ccc2C1=O` had an IC50 of 2.87 µM.

Turning to `COc1ccccc1S(=O)(=O)Nc1cncc(-c2ccc(-c3ccc4c(c3)CN(C)C4=O)s2)c1`, the IC50 stood at 14.8 µM.

The molecule `COc1cccc(S(=O)(=O)Nc2cncc(-c3ccc(-c4ccc5c(c4)CN(C)C5=O)s3)c2)c1` registered an IC50 of 2.56 µM.

`CN1Cc2cc(-c3ccc(-c4cncc(NS(=O)(=O)c5cccc(OC(F)(F)F)c5)c4)s3)ccc2C1=O` gave an IC50 of 1.42 µM.

In the case of `CN1Cc2cc(-c3ccc(-c4cncc(NS(=O)(=O)c5ccc(OC(F)(F)F)cc5)c4)s3)ccc2C1=O`, the 50% inhibitory concentration (IC50) is over 20 µM.

With `CN1Cc2cc(-c3ccc(-c4cncc(NS(=O)(=O)c5ccccc5C(F)(F)F)c4)s3)ccc2C1=O`, it took 1.45 µM to reach half-maximal inhibition (IC50).

`CN1Cc2cc(-c3ccc(-c4cncc(NS(=O)(=O)c5ccc(C(F)(F)F)cc5)c4)s3)ccc2C1=O` registered an IC50 of over 20 µM.

`CN1Cc2cc(-c3ccc(-c4cncc(NS(=O)(=O)c5cc(C(F)(F)F)cc(C(F)(F)F)c5)c4)s3)ccc2C1=O` gave a 50% inhibitory concentration (IC50) of over 20 µM.

`CN1Cc2cc(-c3ccc(-c4cncc(NS(=O)(=O)c5ccccc5C#N)c4)s3)ccc2C1=O` showed an IC50 of 9.17 µM.

On to `CN1Cc2cc(-c3ccc(-c4cncc(NS(=O)(=O)c5ccc(C#N)cc5)c4)s3)ccc2C1=O`, for which inhibition was half-maximal at 5.17 µM (IC50).

`COC(=O)c1ccc(S(=O)(=O)Nc2cncc(-c3ccc(-c4ccc5c(c4)CN(C)C5=O)s3)c2)cc1`: the midpoint of inhibition, the IC50, lay at 8.16 µM.

`CN1Cc2cc(-c3ccc(-c4cncc(NS(=O)(=O)c5ccc(C(=O)O)cc5)c4)s3)ccc2C1=O` showed a half-inhibitory concentration (IC50) of 0.75 µM.

`CN1Cc2cc(-c3ccc(-c4cncc(NS(=O)(=O)c5ccccc5S(C)(=O)=O)c4)s3)ccc2C1=O` displayed an IC50 of 6.8 µM.

With `CN1Cc2cc(-c3ccc(-c4cncc(NS(=O)(=O)c5ccc(S(C)(=O)=O)cc5)c4)s3)ccc2C1=O`, the IC50 is over 20 µM.

`CN1Cc2cc(-c3ccc(-c4cncc(NS(=O)(=O)c5ccc([N+](=O)[O-])cc5)c4)s3)ccc2C1=O`: the IC50 turned out to be 2.74 µM.

`Cc1cc(F)ccc1S(=O)(=O)Nc1cncc(-c2ccc(-c3ccc4c(c3)CN(C)C4=O)s2)c1` displayed an IC50 of 5.53 µM.

As to `CN1Cc2cc(-c3ccc(-c4cncc(NS(=O)(=O)c5ccc(F)c(C(F)(F)F)c5)c4)s3)ccc2C1=O`, half-maximal inhibition (IC50) required 3.75 µM.

As to `CN1Cc2cc(-c3ccc(-c4cncc(NS(=O)(=O)c5cc(Br)cc(C(F)(F)F)c5)c4)s3)ccc2C1=O`, the IC50 is over 20 µM.

For the molecule `CN1Cc2cc(-c3ccc(-c4cncc(NS(=O)(=O)c5ccccn5)c4)s3)ccc2C1=O`, 1.07 µM corresponded to half-maximal inhibition (IC50).

For the molecule `CN1Cc2cc(-c3ccc(-c4cncc(NS(=O)(=O)c5ccsc5)c4)s3)ccc2C1=O`, half-maximal inhibition (IC50) required 12.5 µM.

For the molecule `CN1Cc2cc(-c3ccc(-c4cncc(NS(=O)(=O)c5ccc(-c6ccno6)s5)c4)s3)ccc2C1=O`, the IC50 was found to be 7.1 µM.

In the case of `Cc1cc(C)n(-c2ccc(S(=O)(=O)Nc3cncc(-c4ccc(-c5ccc6c(c5)CN(C)C6=O)s4)c3)cc2)n1`, the IC50 amounted to 19.1 µM.

The molecule `Cc1ncsc1S(=O)(=O)Nc1cncc(-c2ccc(-c3ccc4c(c3)CN(C)C4=O)s2)c1` came in with an IC50 of 11.6 µM.

In the case of `CN1Cc2cc(-c3ccc(-c4cncc(NS(=O)(=O)c5ccccc5)c4)s3)ccc2C1=O`, the IC50 came to 8.46 µM.

Regarding `Cc1ccc(NS(=O)(=O)c2ccc(F)cc2F)cc1-c1ccc(-c2ccc3c(c2)CN(C)C3=O)s1`, the IC50 is over 20 µM.

For `CN1Cc2cc(-c3ccc(-c4cncc(NS(=O)(=O)c5ccccc5Cl)c4)s3)ccc2C1=O`, the IC50 came to 4.01 µM.

In the case of `CN1Cc2cc(-c3ccc(-c4cncc(NS(=O)(=O)c5ccc(Br)cc5)c4)s3)ccc2C1=O`, half-maximal inhibition (IC50) required 8.77 µM.

Turning to `CN1Cc2cc(-c3ccc(-c4cccc(NS(=O)(=O)c5ccc(F)cc5F)c4)s3)ccc2C1=O`, inhibition was half-maximal at 5.74 µM (IC50).

In turn, `CN1Cc2cc(-c3ccc(-c4cncc(NS(=O)(=O)c5cccs5)c4)s3)ccc2C1=O` came in with an IC50 of 1.07 µM.

`CN1Cc2cc(-c3ccc(-c4cncc(N(C)S(=O)(=O)c5ccc(F)cc5F)c4)s3)ccc2C1=O` showed an IC50 of 16.1 µM.

Take `CN1Cc2cc(-c3ccc(-c4cncc(NS(=O)(=O)c5ccc(C(F)(F)F)cc5Cl)c4)s3)ccc2C1=O`: the IC50 is over 20 µM.

What is called IC50 is the concentration at which inhibition is half-maximal. A lower IC50 goes with inhibition by little substance.
